Values of other authors in US6117869A, “Compounds for and methods of inhibiting matrix metalloproteinases” (Warner-Lambert Company, priority 1999, dated 2000).

System: experimental allergic encephalomyelitis (EAE)
Conditions: dose dependent; cited from earlier work

Structure (SMILES): CNC(=O)[C@H](Cc1c[nH]c2ccccc12)NC(=O)[C@@H](CC(=O)NO)CC(C)C [GM6001]
- development or clinical expression of EAE: suppressed the development or reversed the clinical expression
